Experimental data from patent publication US20080090878A1, “Pharmaceutical combinations and their use in treating gastrointestinal and abdominal viscera disorders” (priority 1999, published 2008).

System: Guinea-Pig Colon Entero-Chromaffin Cells
Experiment: Release of serotonin (5HT) from guinea-pig colon entero-chromaffin cells, organ bath, HPLC
Assay type: cell-based, guinea-pigs
Conditions: guinea-pig proximal colon
Protocol: Male guinea-pigs, 200-400 g are stunned and bled. Segments of the proximal colon are removed and suspended, as described by Trendelenburg in Arch. Exp. Path. Pharmakol., 81, 55-129 (1917), in a 20 ml organ bath. The tissue is bathed with a modified Krebs solution (NaCl 118.6; CaCl2 2.7; KCl 4.7; KH2 PO4 1.2; MgSO4 0.1; NaHCO3 25.0; and glucose 5.6 mM), maintained at 37° C. 5-HT is determined by high-performance liquid chromatography with electro-chemical detection. […] To individual organ baths the following agents are added prior to the addition of physostigmine (1 microM): 1) no addition (negative control), 2) atropine (0.2 microM) (positive control), 3) hexamethonium (100 microM) (positive control), 4) tegaserod, 5) cilansetron, 6) prucalopride, 7) A-85380, 8) fedotozine, 9) chlordiazepoxide, 10) CGP49823, 11) buproprion, 12) fluvoxamine, 13) tegaserod plus cilansetron, 14) tegaserod plus prucalopride, 15) tegaserod plus A-85380, 16)-tegaserod plus fedotozine, 17) tegaserod plus chlordiazepoxide, 18) tegaserod plus SDZ-NKT-343, 19) tegaserod plus buproprion, or 20) tegaserod plus fluvoxamine. The combination of agents results in an amplification of the reduction of physostigmine-induced serotonin outflow as compared to any of the agents alone.

SMILES | luminal outflow of 5-HT (0.2 microM) | luminal outflow of 5-HT (100 microM)
CN1[C@@H]2CC[C@H]1C[C@@H](OC(=O)C(CO)c1ccccc1)C2 (some centres unmarked) [atropine] | significantly reduced | 
C[N+](C)(C)CCCCCC[N+](C)(C)C [hexamethonium] |  | significantly reduced
